Data on 1 compound can be found in patent publication US8124582B2, “Treatment of diabetes” (FibroGen, Inc., priority 2002, dated 2012).

One assay relates to adrenomedullin. Briefly: In vivo adrenomedullin mRNA expression (microarray). Also on record: species or system Swiss Webster male mice. Particulars: mice, heart, kidney, and lung. As to the method: (§1) To determine gene induction patterns over time, twenty four Swiss Webster male mice (30-32 g) were obtained from Simonsen, Inc. and treated by oral gavage with a 4 ml/kg volume of either 0.5% carboxymethyl cellulose (CMC; Sigma-Aldrich, St. Louis Mo.) (0 mg/kg/day) or […] compound B (25 mg/ml in 0.5% CMC) (100 mg/kg). At 4, 8, 16, 24, 48, or 72 hours after the final dose, animals were anesthetized with isoflurane. The mice were then sacrificed and tissue samples of kidney, liver, brain, lung, and heart were isolated and stored in RNALATER solution (Ambion) at −80° C.
For measurement of adrenomedullin mRNA expression, samples were prepared and were hybridized and analyzed as described above in Example 4.

The subject of the next assay is aldolase. Briefly: Aldolase protein expression in 293A cells (Western blot). Particulars: FIG. 1A. Type of assay: cell-based, Human. Here is the method: The effect of compounds of the present invention on expression of proteins and genes involved in glucose regulation and metabolism as follows. Human 293A cells (adenovirus-transformed fetal kidney epithelium) were plated confluent in 35 mm culture dishes and cultured for 1 day at 37° C., 10% CO2 in DMEM containing 5% FBS and 1% penicillin-streptomycin. The media was changed to Opti-Mem I and incubation was continued for an additional 18 to 24 hours. Vehicle control or compound B was then added to the media and cells were incubated for an additional 24, 48 or 72 hours. Plates were placed on ice, culture supernatant was removed, and lysis buffer-1 (LB-1: 10 mM Tris pH 7.4, 1 mM EDTA, 150 mM sodium chloride, 0.5% IGEPAL) was added. Cell lysates were harvested by scraping, incubated for 15 minutes on ice, and then fractionated by centrifugation at 3000×g for 5 minutes at 4° C. The supernatant, which represented the cytosolic fraction, was collected and cytosolic proteins were separated under reducing conditions using SDS-polyacrylamide gel electrophoresis (SDS-PAGE) with equal amounts of protein loaded per lane.
SDS-PAGE was conducted at 150 V for 2 hours, after which the proteins were transferred to a PVDF membrane at 400 mA for 1.5 hours at 4° C. […]
Background: A western blot detects proteins with antibodies after separation by electrophoresis.

In a further assay the test system is IGFBP-1. In words: In vivo IGFBP-1 gene expression in kidney and liver (microarray). Set-up: species or system Swiss Webster male mice. Particulars: mice, oral gavage; time course; quantitatively different level between tissues; FIG. 3B. As to the method: as §1
(§2) RNA from tissues obtained from the experiments described above was isolated using the following protocol. A 50 mg section of each organ was diced, 875 μl of RLT buffer (RNEASY kit; Qiagen Inc., Valencia Calif.) was added, and the pieces were homogenized for about 20 seconds using a rotor-stator POLYTRON homogenizer (Kinematica, Inc., Cincinnati Ohio). […] The RNA was eluted into 80 μL of water and quantitated with RIBOGREEN reagent (Molecular Probes, Eugene Oreg.). […] The absorbance at 260 and 280 nm was measured to determine RNA purity and concentration.
(§3) Alternatively, tissue samples were diced and homogenized in TRIZOL reagent (Invitrogen Life Technologies, Carlsbad Calif.) using a rotor-stator POLYTRON homogenizer (Kinematica). […] The absorbance at 260 and 280 nm was measured to determine RNA purity and concentration. […]

In assay [1] the test system is PFK-P, PFK-L, enolase-1, GluT-1, lactate dehydrogenase-1, aldolase-1, hexokinase-1. Briefly: In vivo expression of genes encoding enzymes involved in glucose regulation (microarray, time course). Particulars: mice, 100 mg/kg oral gavage. Set-up: species or system Swiss Webster male mice. As to the method: as §1, §2, §3

`O=C(O)CNC(=O)c1nc(Cl)c2ccccc2c1O` [compound B, [(1-Chloro4-hydroxy-isoquinoline-3-carbonyl)-amino]-acetic acid]: the expression of adrenomedullin entry in the assay on adrenomedullin (100 mg/kg oral gavage, FIG. 10B) is listed as “increased in various tissues”. Moreover, the “time within which adrenomedullin mRNA levels returned to control levels” value in the assay with adrenomedullin (time course) lay in the range of 16 to 24 h. For the same compound, the aldolase expression result with aldolase (293A cells treated for 24, 48, and 72 hours, vs vehicle control) is “increased over time”. In addition, the β-tubulin expression entry with aldolase (293A cells, specificity control) was “no increases”. Moreover, the “IGFBP-1 expression in kidney and liver” value in the assay with IGFBP-1 is reported as “almost identical temporal induction”. In assay [1] (kidney, liver, lung, 4-72 hours after dose, FIGS. 2A-2C), the “expression of genes encoding enzymes involved in glucose regulation” value is “increased in a coordinated fashion”. For the same compound, the “time after which most mRNA levels returned to control levels” value in assay [1] (time course) lay in the range of 24 to 48 h.
